{
  "source": "patent US6831079B1",
  "about": "“Vasopressin agonist formulation and process” (American Cyanamid Company, priority 1999, dated 2004)",
  "key": {"Vasopressin V2": {"biological_target": "Vasopressin V2 (Rattus norvegicus, UniProt Q00788)", "sequence (Q00788 whole entry)": "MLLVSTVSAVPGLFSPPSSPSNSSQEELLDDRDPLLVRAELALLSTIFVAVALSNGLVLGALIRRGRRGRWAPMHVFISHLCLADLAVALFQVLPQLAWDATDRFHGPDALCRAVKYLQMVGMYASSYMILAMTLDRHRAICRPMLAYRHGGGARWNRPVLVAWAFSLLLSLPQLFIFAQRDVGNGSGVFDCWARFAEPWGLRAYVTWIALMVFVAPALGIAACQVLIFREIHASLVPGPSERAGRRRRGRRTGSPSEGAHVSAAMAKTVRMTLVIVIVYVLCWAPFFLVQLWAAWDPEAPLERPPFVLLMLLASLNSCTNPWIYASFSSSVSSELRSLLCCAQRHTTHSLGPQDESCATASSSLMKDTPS", "assay": "Vasopressin V2 agonist effects in normal conscious homozygous Brattleboro rats with central diabetes insipidus", "assay_type": "in vivo", "set-up": "from tissue; host or cells: whole living homozygous Brattleboro rat; the receptor is the animal's own", "settings": "Brattleboro (BB) rats, 10 mg/kg oral", "description": "Vasopressin V2 Agonist Effects of Test Compounds in Normal Conscious Homozygous Brattleboro Rats with Central Diabetes Insipidus\nMale or female homozygous Brattleboro rats (Harlan Sprague Dawley, Inc., Indianapolis, Ind.) of 250-350 g body weight were supplied with standard rodent diet (Purina Rodent Lab. Chow 5001) and water ad libitum. On the day of test, rats were placed individually into metabolic cages equipped with devices to separate the feces from the urine and containers for collection of urine. Test compound or reference agent was given at an oral dose of 1 to 10 mg/kg in a volume of 10 ml/kg. The vehicle used was 20% dimethylsulfoxide (DMSO) in 2.5% preboiled corn starch. During the test, rats were provided with water ad libitum. Urine was collected for six hours after dosing of the test compound. At the end of six hours, urine volume was measured. Urinary osmolality was determined using a Fiske One-Ten Osmometer (Fiske Associates, Norwood, Mass., 02062) or an Advanced CRYOMATIC Osmometer, Model 3C2 (Advanced Instruments, Norwood, Mass.). Determinations of Na^+, K^+ and Cl^− ion were carried out using ion specific electrodes in a Beckman SYNCHRON EL-ISE Electrolyte System analyzer. This animal model was mainly used for evaluation of potency and duration of action of the active compounds."}},
  "data": [
    {"smiles": "Cn1ncnc1-c1ccc(C(=O)N2Cc3cccn3Cc3ccccc32)cc1", "note": "[Example 49, [4-(2-Methyl-2H-[1,2,4]triazol-3-yl)-phenyl]-(5H,11H-pyrrolo[2,1-c][1,4]-benzodiazepin-10-yl)-methanone]", "values": [
      {"measurement": "Osmolality (% Increase)", "setting": "Vasopressin V2; change in osmolality as percent of control", "result": 221, "unit": "%"},
      {"measurement": "Urine Volume (% decrease)", "setting": "Vasopressin V2; vs. control, urine collected six hours", "result": 74, "unit": "%"},
      {"measurement": "melting point", "result": "155 to 158", "unit": "°C"}
    ]}
  ]
}
